Data on 14 molecules can be found in US10703757B2, “Compounds and methods for CDK8 modulation and indications therefor” (Plexxikon Inc., priority 2016, dated 2020).

The subject of the test is CDK8 (phosphorylation of STAT1 at serine 727 in A549 cells). In words: Cell based Phospho-STAT1 assay (IFNγ-stimulated A549 cells, AlphaLISA). The settings on record: Homo sapiens, A549, A549 cells, phospho-STAT1 after IFNγ stimulation. A digest of the protocol: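 A549 cells given serial compound dilutions for 1 h at 37 °C, then stimulated with IFNγ at 10 ng/mL final for 30 min. Lysate STAT1 Ser727 phosphorylation measured by AlphaLISA; % inhibition vs stimulated/unstimulated DMSO controls, IC50 by nonlinear regression.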
For orientation: Alpha assays give light when donor and acceptor beads are brought close together.
Usually IC50 stands for the concentration at which inhibition is half-maximal. Higher therefore signals weaker potency in that assay. Turning to `Cn1cc(-c2ccc(-c3cnc4cccc(OC5CCOCC5)n34)cc2)cn1` [Compound P-0427, 3-(4-(1-methyl-1H-pyrazol-4-yl)phenyl)-5-((tetrahydro-2H-pyran-4-yl)oxy)imidazo[1,2-a]pyridine], the concentration for half-maximal inhibition (IC50) lay within 100 to 1000 nM.

`Cn1ncc2cc(-c3cnc4[nH]ccc4c3N3CCC(C#N)CC3)ccc21` [Compound P-0357, 1-[5-(1-methylindazol-5-yl)-1H-pyrrolo[2,3-b]pyridin-4-yl]piperidine-4-carbonitrile] displayed an IC50 of 0.1 to 100 nM.

With `Cn1cc(-c2ccc(-c3cnc4cccc(NCC5CCOCC5)n34)cc2)cn1` [Compound P-0391, 3-(4-(1-methyl-1H-pyrazol-4-yl)phenyl)-N-((tetrahydro-2H-pyran-4-yl)methyl)imidazo[1,2-a]pyridin-5-amine], the IC50 was 100 to 1000 nM.

`Cc1noc(C)c1-c1ccc(-c2cnn3cccc(C#CC(C)(C)O)c23)cc1` [Compound P-0227, 4-(3-(4-(3,5-dimethylisoxazol-4-yl)phenyl)pyrazolo[1,5-a]pyridin-4-yl)-2-methylbut-3-yn-2-ol] showed a concentration for half-maximal inhibition (IC50) of 1000 to 10000 nM.

In turn, `Cn1ncc2cc(-c3cnc4[nH]ccc4c3NCC(C)(C)C#N)ccc21` [Compound P-0336, 2,2-dimethyl-3-((5-(1-methyl-1H-indazol-5-yl)-1H-pyrrolo[2,3-b]pyridin-4-yl)amino)propanenitrile] returned an IC50 of 100 to 1000 nM.

`Cn1cc(-c2ccc(-c3cnc4cccc(N5CCN(c6cccnc6)CC5)n34)cc2)cn1` [Compound P-0386, 3-(4-(1-methyl-1H-pyrazol-4-yl)phenyl)-5-(4-(pyridin-3-yl)piperazin-1-yl)imidazo[1,2-a]pyridine] showed an IC50 of 0.1 to 100 nM.

On to `CNC(=O)N1CCC(Oc2cccc3ncc(-c4ccc(-c5cnn(C(F)F)c5)cc4)n23)CC1` [Compound P-0292, 4-((3-(4-(1-(difluoromethyl)-1H-pyrazol-4-yl)phenyl)imidazo[1,2-a]pyridin-5-yl)oxy)-N-methylpiperidine-1-carboxamide], for which the 50% inhibitory concentration (IC50) lay within 1000 to 10000 nM.

Molecule `Cn1ncc2cc(-c3cnn4cccc(N5CCC(C#N)CC5)c34)ccc21` [Compound P-0405, 1-(3-(1-methyl-1H-indazol-5-yl)pyrazolo[1,5-a]pyridin-4-yl)piperidine-4-carbonitrile] displayed an IC50 of 0.1 to 100 nM.

`CNC(=O)C1CCN(c2cccc3ncc(-c4ccc(-c5cnn(C)c5)cc4)n23)CC1` [Compound P-0380, N-methyl-1-(3-(4-(1-methyl-1H-pyrazol-4-yl)phenyl)imidazo[1,2-a]pyridin-5-yl)piperidine-4-carboxamide] yielded an IC50 of 1000 to 10000 nM.

As for `CC(C)(O)C#Cc1cccn2ncc(-c3ccc(S(=O)(=O)N4CCCCC4)cc3)c12` [Compound P-0413, 2-methyl-4-(3-(4-(piperidin-1-ylsulfonyl)phenyl)pyrazolo[1,5-a]pyridin-4-yl)but-3-yn-2-ol], the IC50 lay in the range of 1000 to 10000 nM.

As to `Cn1cc(-c2ccc(-c3cnc4cccc(N5CCC(C#N)(c6ccccc6)CC5)n34)cc2)cn1` [Compound P-0451, 1-(3-(4-(1-methyl-1H-pyrazol-4-yl)phenyl)imidazo[1,2-a]pyridin-5-yl)-4-phenylpiperidine-4-carbonitrile], the IC50 was 0.1 to 100 nM.

Take `CNC(=O)C1CC=C(c2cccn3ncc(-c4ccc(-c5cnn(C)c5)cc4)c23)CC1` (centres unmarked) [Compound P-0442, N-methyl-4-(3-(4-(1-methyl-1H-pyrazol-4-yl)phenyl)pyrazolo[1,5-a]pyridin-4-yl)cyclohex-3-ene-1-carboxamide]: the IC50 lay in the range of 0.1 to 100 nM.

The molecule `Cn1cc(-c2ccc(-c3cnn4cccc(C5=CCSCC5)c34)cc2)cn1` [Compound P-0301, 4-(3,6-dihydro-2H-thiopyran-4-yl)-3-(4-(1-methyl-1H-pyrazol-4-yl)phenyl)pyrazolo[1,5-a]pyridine] displayed an IC50 of 100 to 1000 nM.

With `Cn1ncc2cc(-c3cnc4[nH]ccc4c3C3=CCC(C(N)=O)CC3)ccc21` (centres unmarked) [Compound P-0335, 4-(5-(1-methyl-1H-indazol-5-yl)-1H-pyrrolo[2,3-b]pyridin-4-yl)cyclohex-3-ene-1-carboxamide], the IC50 fell in the range of 0.1 to 100 nM.
